We go through 10 compounds from ChEMBL document CHEMBL3817801, “Synthesis and steroid sulfatase inhibitory activities of N-phosphorylated 3-(4-aminophenyl)-coumarin-7-O-sulfamates” (Medchemcomm, 2016).

The structures appear in SMILES notation.

In the test the target is T1, Steryl-sulfatase (Homo sapiens, UniProt P08842).
T1 sequence (P08842 whole entry): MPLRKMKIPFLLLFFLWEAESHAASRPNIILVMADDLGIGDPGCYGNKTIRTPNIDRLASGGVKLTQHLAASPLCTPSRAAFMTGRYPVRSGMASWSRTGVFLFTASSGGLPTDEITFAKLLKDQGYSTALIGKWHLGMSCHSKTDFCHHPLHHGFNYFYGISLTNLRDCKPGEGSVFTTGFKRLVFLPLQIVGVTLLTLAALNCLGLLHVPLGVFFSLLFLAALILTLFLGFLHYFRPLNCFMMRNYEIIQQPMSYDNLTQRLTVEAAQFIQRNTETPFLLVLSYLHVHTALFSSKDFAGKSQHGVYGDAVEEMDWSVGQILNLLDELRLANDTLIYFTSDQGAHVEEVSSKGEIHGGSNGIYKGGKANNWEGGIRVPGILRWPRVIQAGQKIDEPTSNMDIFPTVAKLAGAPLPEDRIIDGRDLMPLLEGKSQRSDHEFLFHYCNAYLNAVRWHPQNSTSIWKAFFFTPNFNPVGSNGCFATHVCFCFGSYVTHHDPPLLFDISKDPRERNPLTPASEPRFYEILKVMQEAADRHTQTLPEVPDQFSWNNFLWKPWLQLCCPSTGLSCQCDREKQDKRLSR
As to the kind of experiment: Inhibition of human placental steroid sulfatase using p-nitrophenyl sulfate as substrate after 15 mins by microplate reader method.

What is called IC50 is the concentration that inhibits the measured activity by half. Lower therefore signals higher potency. As for `Cc1cc(=O)oc2cc(OS(N)(=O)=O)ccc12`, the midpoint of inhibition, the IC50, lay at 1030 nM.

`NS(=O)(=O)Oc1ccc2ccc(=O)oc2c1`: the IC50 is 1380 nM.

Regarding `CCOP(=O)(Nc1ccc(-c2cc3ccc(OS(N)(=O)=O)cc3oc2=O)cc1)OCC`, half-maximal inhibition (IC50) required 510 nM.

Compound `CC1(C)COP(=O)(Nc2ccc(-c3cc4ccc(OS(N)(=O)=O)cc4oc3=O)cc2)OC1` showed an IC50 of 450 nM.

For `CCCCOP(=O)(Nc1ccc(-c2cc3ccc(OS(N)(=O)=O)cc3oc2=O)cc1)OCCCC`, the concentration for half-maximal inhibition (IC50) is 310 nM.

`NS(=O)(=O)Oc1ccc2cc(-c3ccc(NP4(=O)OCCCO4)cc3)c(=O)oc2c1` returned an IC50 of 700 nM. Compared with the last compound, the IC50 is about 2.3-fold higher.

Consider `NS(=O)(=O)Oc1ccc2cc(-c3ccc(NP(=O)(Oc4ccccc4)Oc4ccccc4)cc3)c(=O)oc2c1`, for which it took 190 nM to reach half-maximal inhibition (IC50). Against the preceding compound, the IC50 is about 3.7-fold lower.

As for `NS(=O)(=O)Oc1ccc2cc(-c3ccc(NP(=O)(OCc4ccccc4)OCc4ccccc4)cc3)c(=O)oc2c1`, it took 240 nM to reach half-maximal inhibition (IC50).

For `CC(C)OP(=O)(Nc1ccc(-c2cc3ccc(OS(N)(=O)=O)cc3oc2=O)cc1)OC(C)C`, the IC50 came out at 470 nM.

The compound `COP(=O)(Nc1ccc(-c2cc3ccc(OS(N)(=O)=O)cc3oc2=O)cc1)OC` registered a concentration for half-maximal inhibition (IC50) of 780 nM.
